This note sets out measurements from patent US9895346B2, “Applications of substituent benzyloxy group containing ether compounds for preparing antitumor drugs” (Sinochem Corporation, priority 2013, dated 2018).

Holding throughout (assay type): cell-based, human
In assay [1] the test system is bladder cancer cell line J82. Kind of assay: In vitro cell inhibition assay (crystal violet), bladder cancer J82. The source says: (§1) In vitro Cell inhibition assay is as follows:
(§2) The human cancer cell lines used for this assay were bladder cancer J82, T24, prostate cancer LNCap, PC-3, lung cancer A549, H157, H460, H520, colon cancer HCT8, HCT116, RkO, and leukemia HL-60, etc.
(§3) In vitro cell culture technology was selected for the determination of inhibition rate bladder cancer cell lines J82 and T24, prostate cancer cell lines LNCap and PC-3, lung cancer cell lines A549, H157, H460 and H520. 1000 to 3000 cells were inoculated to 24-well plate, followed by addition of 1 mL culture medium well known to researchers in this field to each well, the cells were cultured in 5% incubator for 24 hours at 37° C., then the different concentration compounds and controls were added to each well. It should be noted that the added volume is not more than 0.5% of total volume. After completion of addition, the cells continued being cultured in incubator for one week, the culture medium was removed and washed by cold PBS of 1 mL once, and then fixed for 10 minutes at room temperature with 1% formalin, followed by wash with PBS of 1 mL. After fixation, stain was carried out with 0.1% crystal violet for 30 minutes. 0.1% crystal violet was recycled. The stained cells were washed gently with deionized water, dried at room temperature and kepted. The inhibition rate was calculated according to the foiling equation. The controls are Selumetinib (AZD6244), Gefitinib, Cisplatin. Inhibition rate=number of left cells each treatment/number of left cells of untreated control×100%

The subject of assay [2] is prostate cancer cell line PC-3. Put plainly: In vitro cell inhibition assay (crystal violet), prostate cancer PC-3.
Source text: as §1, §2, §3

Assay [3] has as its system prostate cancer cell line LNCap. Put plainly: In vitro cell inhibition assay (crystal violet), prostate cancer LNCap.
Source text: as §1, §2, §3

The subject of assay [4] is bladder cancer cell line T24. Put plainly: In vitro cell inhibition assay (crystal violet), bladder cancer T24.
Source text: as §1, §2, §3

The subject of assay [5] is lung cancer cell line A549. Put plainly: In vitro cell inhibition assay (crystal violet), lung cancer A549.
Source text: as §1, §2, §3

The test system of assay [6] is lung cancer cell line H460. Kind of assay: In vitro cell inhibition assay (crystal violet), lung cancer H460.
Source text: as §1, §2, §3

A further assay deals with colon cancer HCT8. Put plainly: In vitro cell inhibition assay, colon cancer HCT8.
Source text: as §1, §2

For the next assay, the system named is colon cancer HCT116. Put plainly: In vitro cell inhibition assay, colon cancer HCT116.
Source text: as §1, §2

Another assay concerns colon cancer RkO. Kind of assay: In vitro cell inhibition assay, colon cancer RkO.
Source text: as §1, §2

For assay [7], the system named is lung cancer cell line H520. Kind of assay: In vitro cell inhibition assay (crystal violet), lung cancer H520.
Source text: as §1, §2, §3

Regarding `CO/C=C(/C(=O)OC)c1ccccc1COc1cc(-c2ccc(Cl)cc2)nn1C` [pyraoxystrobin], the “Inhibition rate on human cancer cells” value is 70% in [1] (J82, 0.25 μM); 100% in [1] (J82, 0.5 μM); 100% in assay [1] (J82, 1.0 μM); 100% in assay [1] (J82, 2.5 μM); 100% in assay [1] (J82, 5.0 μM); 100% in assay [2] (PC-3, 0.25 μM). Moreover, the “Inhibition rate on human cancer cells” value is 100% in [2] (PC-3, 0.5 μM); 100% in [2] (PC-3, 1.0 μM); 100% in assay [2] (PC-3, 2.5 μM); 100% in assay [2] (PC-3, 5.0 μM); 100% in assay [3] (0.25 μM); 100% in [3] (0.5 μM). Also, the “Inhibition rate on human cancer cells” value is given as 100% in [3] (1.0 μM); 100% in assay [3] (2.5 μM); 100% in [3] (5.0 μM); 100% in assay [4] (T24, 0.25 μM); 100% in assay [4] (T24, 0.5 μM); 100% in assay [4] (T24, 1.0 μM). Besides, the “Inhibition rate on human cancer cells” value worked out at 100% in assay [4] (T24, 2.5 μM) and 100% in assay [4] (T24, 5.0 μM).

In the case of `N.N.[Cl][Pt][Cl]` [Cisplatin, reference compound], the “Inhibition rate on human cancer cells” value in assay [5] (A549, 0.25 μM) is given as 0%; in [5] (A549, 0.5 μM), 0%; in [5] (A549, 1.0 μM) it was 5%; in [5] (A549, 2.5 μM) it was 30%; in [5] (A549, 5.0 μM), 80%; in assay [6] (H460, 0.25 μM), 0%. Besides, the “Inhibition rate on human cancer cells” value in [6] (H460, 0.5 μM) was determined as 0%; in assay [6] (H460, 1.0 μM), 5%; in [6] (H460, 2.5 μM), 30%; in [6] (H460, 5.0 μM) it was 90%; in assay [1] (J82, 0.25 μM), 0%; in assay [1] (J82, 0.5 μM), 0%. Besides, the “Inhibition rate on human cancer cells” value is reported as 0% in assay [1] (J82, 1.0 μM); 5% in assay [1] (J82, 2.5 μM); 20% in assay [1] (J82, 5.0 μM); 5% with colon cancer HCT8 (HCT 8, 0.25 μM); 10% in the assay with colon cancer HCT8 (HCT 8, 0.5 μM); 50% with colon cancer HCT8 (HCT 8, 1.0 μM). The “Inhibition rate on human cancer cells” value in the assay with colon cancer HCT8 (HCT 8, 2.5 μM) was 70%; with colon cancer HCT8 (HCT 8, 5.0 μM), 90%; in the assay on colon cancer HCT116 (HCT 116, 0.25 μM), 0%; with colon cancer HCT116 (HCT 116, 0.5 μM), 0%; in the assay on colon cancer HCT116 (HCT 116, 1.0 μM), 5%; in the assay on colon cancer HCT116 (HCT 116, 2.5 μM), 20%. Moreover, the “Inhibition rate on human cancer cells” value with colon cancer HCT116 (HCT 116, 5.0 μM) came out at 50%; in the assay on colon cancer RkO (0.25 μM), 0%; with colon cancer RkO (0.5 μM), 5%; in the assay with colon cancer RkO (1.0 μM), 10%; in the assay with colon cancer RkO (2.5 μM) it was 50%; with colon cancer RkO (5.0 μM), 70%. Besides, the “Inhibition rate on human cancer cells” value in assay [7] (H520, 0.25 μM) is listed as 0%; in [7] (H520, 0.5 μM) it was 5%; in [7] (H520, 1.0 μM) it was 20%; in assay [7] (H520, 2.5 μM), 30%; in [7] (H520, 5.0 μM) it was 50%; in [4] (T24, 0.25 μM) it was 0%. For the same compound, the “Inhibition rate on human cancer cells” value in assay [4] (T24, 0.5 μM) came out at 0%; in [4] (T24, 1.0 μM), 0%; in [4] (T24, 2.5 μM), 5%; in [4] (T24, 5.0 μM) it was 20%.

Regarding `CO/C=C(/C(=O)OC)c1ccccc1COc1cc(C(F)(F)F)nc(Nc2ccc(Cl)cc2Cl)n1` [compound A, reference compound], in [1] (Homo sapiens, J82, 0.25 μM, read-out: Inhibition rate on human cancer cells), the inhibition at 0.25 µM came to 0%. Also, the inhibition at 0.5 µM stood at 50% in [1] (Homo sapiens, J82, 0.5 μM, read-out: Inhibition rate on human cancer cells); 0% in assay [2] (Homo sapiens, PC-3, 0.5 μM, read-out: Inhibition rate on human cancer cells); 0% in assay [3] (Homo sapiens, 0.5 μM, read-out: Inhibition rate on human cancer cells); 0% in assay [4] (Homo sapiens, T24, 0.5 μM, read-out: Inhibition rate on human cancer cells). Besides, the inhibition at 1 µM in assay [1] (Homo sapiens, J82, 1.0 μM, read-out: Inhibition rate on human cancer cells) is 95%; in assay [2] (Homo sapiens, PC-3, 1.0 μM, read-out: Inhibition rate on human cancer cells) it was 85%; in assay [3] (Homo sapiens, 1.0 μM, read-out: Inhibition rate on human cancer cells) it was 100%; in [4] (Homo sapiens, T24, 1.0 μM, read-out: Inhibition rate on human cancer cells), 100%. The inhibition at 2.5 µM in [1] (Homo sapiens, J82, 2.5 μM, read-out: Inhibition rate on human cancer cells) came to 100%; in assay [2] (Homo sapiens, PC-3, 2.5 μM, read-out: Inhibition rate on human cancer cells) it was 100%; in [3] (Homo sapiens, 2.5 μM, read-out: Inhibition rate on human cancer cells), 100%; in assay [4] (Homo sapiens, T24, 2.5 μM, read-out: Inhibition rate on human cancer cells) it was 100%. Moreover, the inhibition at 5 µM in assay [1] (Homo sapiens, J82, 5.0 μM, read-out: Inhibition rate on human cancer cells) worked out at 100%; in assay [2] (Homo sapiens, PC-3, 5.0 μM, read-out: Inhibition rate on human cancer cells), 100%; in [3] (Homo sapiens, 5.0 μM, read-out: Inhibition rate on human cancer cells), 100%; in assay [4] (Homo sapiens, T24, 5.0 μM, read-out: Inhibition rate on human cancer cells), 100%.

`CO/C=C(/C(=O)OC)c1ccccc1Oc1cc(Oc2ccccc2C#N)ncn1` [Azoxystrobin]: the “Inhibition rate on human cancer cells” value in assay [1] (J82, 5.0 μM) is 0%; in assay [2] (PC-3, 5.0 μM), 0%; in assay [3] (5.0 μM) it was 0%; in [4] (T24, 5.0 μM), 0%.

The inhibition is the relative decrease from the control value, in per cent.
